The values below come from a melting point compilation (Tetko et al.; mined from patent text by program, amines drawn as free bases though some values may be those of a salt).

On to `C[C@H](NS(=O)(=O)c1ccc2ccccc2c1)C(=O)Cl`, for which the melting point (in general, the temperature of the solid-liquid transition) fell in the range of 134 to 136 °C.
The value for `CC(C)(Cc1ccc(O)c2ncccc12)[N+](=O)[O-]` was 133 to 134 °C; that for `C=C1CC(Cn2cc(C)c(=O)[nH]c2=O)(c2ccc(Cl)cc2)OC1=O` (stereo not drawn) was 188 to 189 °C; that for `c1c(C(CN2CCNCC2)N2CCNCC2)nc(N2CCCC2)nc1N1CCCC1` (stereo not drawn) was 148 to 149 °C.
Regarding `COc1cccc(OC)c1-c1cc(C(=O)NC2(C(=O)O)C3CC4CC(C3)CC2C4)nn1-c1ccc(C(=O)NC2CC(C)(C)NC(C)(C)C2)cc1C(C)C` (stereo not drawn), the melting point fell in the range of 270 to 272 °C.
`CC1OC(n2cc(F)c(NC(=O)OC3CCCCC3)nc2=O)C(O)C1O` (stereo not drawn) had a melting point of 134 to 136 °C.
The result for `CC(=O)Nc1cccc(/C=C/C(=O)N2CC(CCl)c3c2cc([N+](=O)[O-])c2ccccc32)c1` (stereo not drawn) reads 214 to 216 °C.
The result for `COc1cc(C(=O)N2Cc3ccc(C(=O)NCc4ccc5c(c4)OCO5)n3Cc3ccccc32)ccc1-c1ccccc1C` reads 167 to 168 °C; that for `CCOCc1nc2c(N)nc3ccccc3c2n1CCCC(=O)N1CCOCC1`, 201 to 203 °C.
The result for `O=C(c1ccccc1)N1CCc2c(c(=O)[nH]c3ccccc23)C1` reads 275 to 277 °C; that for `CCOC(=NC(=O)c1ccccc1)N1Cc2ccccc2-c2ccccc2C1`, 116 to 117 °C.
In turn, `CCCc1nc2c(N)nc3ccccc3c2n1CCOCCCS(=O)(=O)c1ccccc1C` returned a melting point of 159 to 160 °C.
The result for `O=C1CNN(c2cc(Cl)c(C(C(=O)O)c3ccc(Cl)cc3)c(Cl)c2)C(=O)N1` (stereo not drawn) reads 194 °C; that for `O=C1NC(C(Cl)(Cl)Cl)Oc2ccccc21` (stereo not drawn), 175 to 177 °C; that for `CC(C)OC(=O)C1Oc2ccccc2Cc2ccccc2O1`, 94 to 97 °C.
The result for `COc1ccc([N+](=O)[O-])c(C=O)c1OC` reads 106 to 108 °C; that for `COCC1(F)CCN(c2ccc(N3C[C@H](CNC(C)=O)OC3=O)cc2F)CC1`, 169 to 171 °C.
The molecule `CS(=O)(=O)c1ccc(N2CCC(=O)CC2)cc1` had a melting point of 183 to 185 °C.
Molecule `Cc1cc(CCCOc2c(C)cc(-c3noc(=N)[nH]3)cc2C)on1` yielded a melting point of 175 to 183 °C.
The result for `C=Cc1c(-c2ccccc2)coc1C(=O)NNC(=O)c1ccc(O)c(C#N)c1` reads 170 to 174 °C.
The value for `Cc1c(F)c(N2CCC(N)C2)c(Cl)c2c1c(=O)c(C(=O)O)cn2C1CC1` (stereo not drawn) was 124 to 126 °C; that for `Nc1c(NCCCOc2cccc(CO)c2)c(=O)c1=O` was 207 to 212 °C.
The value for `Cc1nc(CC(N)=O)no1` was 112 to 114 °C; that for `CCCCCCCCCCC1(CCCCCCCCCC)c2cc(C=O)ccc2-c2ccc(N(c3ccccc3)c3ccccc3)cc21` was 77 to 78.5 °C.
Consider `CCCCc1nc2c(N)nc3cccnc3c2n1CCCCN1CC(C(N)=O)=CC=C1N1CCOCC1`, for which the melting point was 95 to 100 °C.
The value for `CC(=O)OCCc1c(N)cc(OCc2ccccc2)c2ccccc12` was 76 to 82 °C.
On to `COc1ccc(-c2cc3nccnc3[nH]2)cc1OCCO`, for which the melting point lay within 203 to 205 °C.
The value for `OC(CSC(=S)Nc1ccccn1)c1ccccc1` (stereo not drawn) was 82 °C; that for `Cc1ccc2[nH]c3c(N)nn(C)c3c(=O)c2c1` was above 300 °C; that for `CCCc1cc(=O)oc2c(C=O)c(O)cc(O)c12` was 236 to 237 °C.
The value for `CCCN(CCC)Cc1cnc(-c2ncn3c2CN(C)C(=O)c2ccccc2-3)o1` was 133 to 135 °C; that for `O=C1OC(COc2ccccc2)CN1Sc1ccc(Cl)cc1` (stereo not drawn) was 98 to 101 °C; that for `O=C1CCC(N2Cc3c(OCc4ccc(Cn5ccnc5)cc4)cccc3C2=O)C(=O)N1` (stereo not drawn) was 248 to 250 °C.
The molecule `O=C(CS(=O)(=O)c1ccccc1)NC1CCN(Cc2ccc(Cl)c(Cl)c2)CC1` registered a melting point of 97 to 99 °C.
The result for `COCC(C)Oc1ccc(CSc2cnn(C(C)(C)C)c(=O)c2Cl)cc1` (stereo not drawn) reads 51 to 52 °C.
The result for `CC(=O)Nc1ccc2c(c1)cc(C(=O)c1ccc(F)cc1)n2C` reads 213 to 215 °C; that for `CC(C)(C)OC(=O)Nc1ccc(NC(=O)C(=O)N2CCC(Cc3ccccc3)CC2)cc1`, 177 to 179 °C; that for `COc1ccc(Cn2cnc3c(=O)[nH]c(N)nc32)cc1`, above 300 °C.
The result for `N#CN=c1[nH]c2c([N+](=O)[O-])c(Cl)c(Cl)cc2nc1Cl` reads 245 to 255 °C.
`CN(C)C(=O)[C@@H]1CCCN1C(=O)OCc1ccccc1` came in with a melting point of 66 to 67 °C.
The value for `CCc1c(-c2ccc(OC)cc2)c2cc(C(C)=O)c3cccc1n32` was 73 to 75 °C; that for `Cc1ccc(S(=O)(=O)NCc2nc(C(C)C)c(Sc3cc(Cl)cc(Cl)c3)n2C)cc1` was 85 to 87 °C; that for `O=C1Nc2ccccc2N(C(=O)CCN2CCCC2)c2ccc(Cl)cc21` was 167 to 169 °C.
`O=C1c2ccccc2C(=O)c2sc(-c3ccncc3)nc21` registered a melting point above 260 °C.
The value for `CCCOc1ccc(S(=O)(=O)N2CCN(CC)CC2)cc1-c1nc2cc3ncn(Cc4ccccc4OC)c3cc2c(=O)[nH]1` was 180 to 182 °C.
The value for `Cc1cccc(C)c1NC(=O)c1ccc([N+](=O)[O-])cc1` was 212 to 215 °C; that for `COc1cc(Nc2nccc(Sc3ccccc3)n2)cc(OC)c1OC` was 110 °C; that for `Cc1cc(NCCOC(=O)c2ccccc2)c2[nH]ncc2n1` was 136 to 138 °C.
The result for `NNc1nncc(-c2ccccc2F)n1` reads 171 to 174 °C.
On to `FC(F)(F)c1ccc(OC2CCCCO2)c(Sc2ccccc2)c1` (stereo not drawn), for which the melting point was 72 to 73 °C.
The result for `CC(C)c1ccc(C(=O)N(C(=N)N)C(=O)c2ccc(C(C)C)c(S(C)(=O)=O)c2)cc1S(C)(=O)=O` reads 218 to 221 °C; that for `O=C(O)CN1C(=O)C(=Cc2cccnc2)SC1=S`, 261 to 264 °C.
Turning to `O=C(Cc1cccnc1)[N+]1([O-])CCC(=C2c3ccc(Cl)cc3CCc3cccnc32)CC1` (stereo not drawn), the melting point fell in the range of 120 to 121 °C.
The value for `CCN(CC)C(=O)COc1nc2cc(OC)cc(OC)c2cc1-c1ccc(OC)cc1` was 146 to 147 °C; that for `N#CN=C(NCCC[C@@H](NC(=O)C(c1ccccc1)c1ccccc1)C(=O)NCc1ccc(O)cc1)Oc1ccccc1` was 110 to 112 °C; that for `COc1cc2nc(C)c3c4cc5c(cc4ccc3c2cc1OC)OCO5` was above 250 °C.
In turn, `COC(=O)c1ccc(CN2CC2C#N)c(OC)n1` (stereo not drawn) came in with a melting point of 156 to 158 °C.
`COc1cc2c(cc1Nc1ncc(Cl)c(Nc3ccccc3S(=O)(=O)N(C)C)n1)CCN(C(=O)C(C)(C)N)CC2` showed a melting point of 93 to 101 °C.
The value for `CC#CCCCn1ncc2c(N)c3c(nc21)CN(CCC)C3=O` was 168 to 170 °C; that for `Cc1nc(N2CC(Cc3ccccc3)CC2=O)sc1C(=O)NCc1ccccc1` (stereo not drawn) was 143 to 144 °C; that for `O=C(O)CCCNC(=O)c1n[nH]cc1NC(=O)c1ccccn1` was 227 to 228 °C.
The value for `Cc1nc(C)c(C(=O)Nc2cccc3c2C(C)CC3(C)C)s1` (stereo not drawn) was 117 to 118 °C.
The result for `COC(=O)C1=C(C)NC(C)=C(C(=O)O)[C@H]1c1cccc2nonc12` reads 175 °C; that for `Cc1nc(N2CCN(Cc3ccc(F)cc3)C2=O)sc1C(=O)NCc1ccc(F)cc1`, 177 to 178 °C; that for `O=C(O)c1ccc(-c2cc3ccccc3[nH]2)cc1`, 205 °C.
As for `O=C(O)c1cnn(-c2nc(-c3cccc(C(F)(F)F)c3)cs2)c1`, the melting point lay in the range of 229 to 230 °C.
Regarding `COC(COc1ccc(Br)c(C)c1C)OC`, the melting point lay in the range of 40 to 41 °C.
The result for `COc1ccc(C(C#Cc2ccccc2)Cc2noc(C(F)(F)F)n2)cc1OC1CCCC1` (racemic) reads 96 to 98 °C; that for `COc1ccc(C(=O)c2ccccc2-c2ccc(C#N)cc2)cc1`, 121 to 123 °C.
`Cc1cc(F)ccc1-c1nc(N[C@@H](C)CO)nc2c1ccc(=O)n2-c1ccccc1F`: the melting point was 114 to 120 °C.
`COc1cc2cc(CO)c(CO)c(-c3ccnc(C4C(=O)CCCC4=O)c3)c2cc1OC` registered a melting point above 220 °C.
The value for `C=CCNc1ncnc2c1ncn2Cc1c(F)cccc1Cl` was 163 to 164 °C; that for `Cc1cc(NCc2ccccc2)c([N+](=O)[O-])c(=O)[nH]1` was 246 to 247 °C.
The value for `Cc1cccc(C(=O)CCSC(=S)Nc2ccc(Cl)cn2)c1` was 153 °C.
The result for `CNC(=O)[C@@H]1C[C@@H](OCc2ccccc2)CN1S(=O)(=O)c1ccc(Cl)c(COc2cccc3c(-n4ccnc4)cc(C)nc23)c1Cl` reads 100 °C; that for `CC1=NC(NC(=O)Nc2cccc(Br)c2)C(=O)N(CC(=O)N2CC3CCC(CC3)C2)c2c(C)cccc21` (stereo not drawn), 168 to 171 °C; that for `CCCCOc1cc(/C=C/C(=O)NS(=O)(=O)CCC(C)C)n(Cc2ccc(C(F)(F)F)cc2Cl)n1`, 89.5 to 90.5 °C.
Turning to `N#Cc1cc(-c2ccccc2)c(C(=O)O)cn1`, the melting point lay within 270 to 272 °C.
The value for `O=c1[nH]ncc(Cl)c1NCCN1CCN(c2cccc(C(F)(F)F)c2)CC1` was 220 to 223 °C; that for `CC(C)Cn1cnc2c(N)nc3c(c21)CCNC3` was 220 to 223 °C; that for `COc1cc2c(cc1OC)C(C(=O)O)SCC2` (stereo not drawn) was 167 to 169 °C.
The value for `COCN1C(=O)COc2ccc([N+](=O)[O-])cc21` was 120 to 122 °C; that for `CN(C=O)c1c2oc3ccccc3c2nn1C` was 135 to 138 °C; that for `CCn1cc(-c2ccccc2)c2ncccc2c1=O` was 142 °C.
The value for `Cc1cc2ccc(=O)oc2cc1O` was 253 to 254 °C; that for `O=Cc1cc(O)c(O)c([N+](=O)[O-])c1` was 142 to 143 °C; that for `Nc1nc(-c2ccccc2)cc(C2CCN(C(=O)c3ccccc3)CC2)n1` was 104 to 105 °C.
Consider `CC(Cl)c1ccccc1S(N)(=O)=O` (stereo not drawn), for which the melting point is 121 to 122 °C.
